Usually IC50 stands for the concentration at which inhibition is half-maximal. What is called inhibition is the share of the control response that was lost under treatment. By viability is commonly meant a per cent measure of how many cells are alive, often set against a control.

Series [1] deals with SARS-CoV-2. The following applies: assay validation with reference drugs.
For series [2] the following is noted: human, cited from earlier work.
Series [3] deals with SARS-CoV-2. In words: microbe, parasite or virus in culture. In kind it is cell-based. The note with it: Severe acute respiratory syndrome coronavirus 2, Calu-3, 24 h.
Series [4] deals with SARS-CoV-2. In words: microbe, parasite or virus in culture. The note with it: Severe acute respiratory syndrome coronavirus 2, Vero, 24 h, read-out: SARS-CoV-2 IC50 in Vero cells.
A short description of series [5]: in vitro. The following applies: human.
The nature of series [6]: in vitro. The following applies: African green monkey.
Series [7] relates to SARS-CoV-2. Kind of series: Checkerboard drug combination assay, SARS-CoV-2 inhibition in Vero cells. It is filed as cell-based. The following applies: Severe acute respiratory syndrome coronavirus 2, Vero, read-out: Relative viral inhibition (%); for inhibition at 0.69 µM: Tipifarnib 0.69 μM; for inhibition at 1.38 µM: Tipifarnib 1.38 μM; for inhibition at 2.75 µM: Tipifarnib 2.75 μM; for inhibition at 5.5 µM: Tipifarnib 5.50 μM; for inhibition at 11 µM: Tipifarnib 11.00 μM; for inhibition at 22.01 µM: Tipifarnib 22.01 μM; for inhibition at 44.02 µM: Tipifarnib 44.02 μM.

Series [8] can be described thus: in vitro. The note with it: African green monkey, Relative cell viability (%).
Series [9] can be described thus: Cytotoxicity (CC50) in Vero cells. The following applies: African green monkey.
A short description of series [10]: Cytotoxicity (CC50) in Calu-3 cells. The following applies: human.
In a further series the target is M^pro (Severe acute respiratory syndrome coronavirus 2, UniProt P0DTD1). It is filed as biochemical. The note with it: FRET assay, 0.1 to 50 μM.
Setting [11] is: read-out: Approx. Cmax (maximum serum concentration), oral.

Read-outs that look alike come from different tables or passages of the source.

Regarding `Cc1cccc(C)c1OCC(=O)N[C@@H](Cc1ccccc1)[C@@H](O)C[C@H](Cc1ccccc1)NC(=O)[C@H](C(C)C)N1CCCNC1=O` [lopinavir], the “antiviral activity against SARS-CoV-2 in Vero cells” value in the series with SARS-CoV-2 [1] was “showed antiviral activity”.
Turning to `O=C(Nc1cc(C(F)(F)F)cc(C(F)(F)F)c1)Nc1ccc(Br)cc1-c1nnn[nH]1` [NS-3728], the Cmax in [2] (in vivo, po) was ~36.5 µM. In addition, the IC50 in the series with SARS-CoV-2 [3] (Calu-3 cells, MOI 0.5, 24 h) is > 50 µM; with SARS-CoV-2 [4] it was 28.4 µM. In addition, the CC50 at 24 h in the series “in vitro [5]” and in the series “in vitro [6]” was > 50 µM each time.
Consider `CCN(CC)CCCC(C)Nc1ccnc2cc(Cl)ccc12` (stereo not drawn) [chloroquine], for which, in the series on SARS-CoV-2 [1], the “antiviral activity against SARS-CoV-2 in Vero cells” value is “showed antiviral activity”.
On to `Cc1cc(O)c2c(=O)c3c(O)cc(O)c4c5c(O)cc(O)c6c(=O)c7c(O)cc(C)c8c1c2c(c34)c(c78)c65` [Hypericin], for which, in series [2] (setting [11]), the Cmax is ~0.008 µM. The IC50 with SARS-CoV-2 [3] (read-out: SARS-CoV-2 IC50 in Calu-3 cells) was > 50 µM; with SARS-CoV-2 [4] it was 19.3 µM. For the same compound, the CC50 in “in vitro [5]” and in the series “in vitro [6]” was > 50 µM in each case.
Turning to `Cn1cncc1[C@@](N)(c1ccc(Cl)cc1)c1ccc2c(c1)c(-c1cccc(Cl)c1)cc(=O)n2C` [Tipifarnib], the inhibition at 0.69 µM with SARS-CoV-2 [7] (Fig. 4D, Omipalisib 0.00 μM) turned out to be 4%; with SARS-CoV-2 [7] (Fig. 4G, Remdesivir 0.00 μM), 0%. The inhibition at 1.38 µM with SARS-CoV-2 [7] (Fig. 4D, Omipalisib 0.00 μM) is 4%; in the series with SARS-CoV-2 [7] (Fig. 4G, Remdesivir 0.00 μM), 0%. For the same compound, the inhibition at 2.75 µM in the series on SARS-CoV-2 [7] (Fig. 4D, Omipalisib 0.00 μM) turned out to be 6%; with SARS-CoV-2 [7] (Fig. 4G, Remdesivir 0.00 μM), 0%. In addition, the inhibition at 5.5 µM was found to be 11% in the series with SARS-CoV-2 [7] (Fig. 4D, Omipalisib 0.00 μM) and 10% in the series on SARS-CoV-2 [7] (Fig. 4G, Remdesivir 0.00 μM). The inhibition at 11 µM in the series on SARS-CoV-2 [7] (Fig. 4D, Omipalisib 0.00 μM) is 91%; in the series with SARS-CoV-2 [7] (Fig. 4G, Remdesivir 0.00 μM) it was 93%. The inhibition at 22.01 µM was determined as 100% in the series on SARS-CoV-2 [7] (Fig. 4D, Omipalisib 0.00 μM) and 100% with SARS-CoV-2 [7] (Fig. 4G, Remdesivir 0.00 μM). Besides, the inhibition at 44.02 µM in the series with SARS-CoV-2 [7] (Fig. 4D, Omipalisib 0.00 μM) was 92%; in the series on SARS-CoV-2 [7] (Fig. 4G, Remdesivir 0.00 μM), 87%. Further, the viability was 90% in “in vitro [8]” (Fig. 4E, Tipifarnib 0.69 μM, Omipalisib 0.00 μM); 91% in the series “in vitro [8]” (Fig. 4E, Tipifarnib 1.38 μM, Omipalisib 0.00 μM); 90% in the series “in vitro [8]” (Fig. 4E, Tipifarnib 2.75 μM, Omipalisib 0.00 μM); 91% in the series “in vitro [8]” (Fig. 4E, Tipifarnib 5.50 μM, Omipalisib 0.00 μM); 76% in the series “in vitro [8]” (Fig. 4E, Tipifarnib 11.00 μM, Omipalisib 0.00 μM); 7% in “in vitro [8]” (Fig. 4E, Tipifarnib 22.01 μM, Omipalisib 0.00 μM). In addition, the viability was found to be 0% in the series “in vitro [8]” (Fig. 4E, Tipifarnib 44.02 μM, Omipalisib 0.00 μM); 91% in “in vitro [8]” (Fig. 4H, Tipifarnib 0.69 μM, Remdesivir 0.00 μM); 90% in “in vitro [8]” (Fig. 4H, Tipifarnib 1.38 μM, Remdesivir 0.00 μM); 89% in “in vitro [8]” (Fig. 4H, Tipifarnib 2.75 μM, Remdesivir 0.00 μM); 88% in the series “in vitro [8]” (Fig. 4H, Tipifarnib 5.50 μM, Remdesivir 0.00 μM); 80% in the series “in vitro [8]” (Fig. 4H, Tipifarnib 11.00 μM, Remdesivir 0.00 μM). For the same compound, the viability in the series “in vitro [8]” (Fig. 4H, Tipifarnib 22.01 μM, Remdesivir 0.00 μM) turned out to be 6%; in “in vitro [8]” (Fig. 4H, Tipifarnib 44.02 μM, Remdesivir 0.00 μM), 0%. The Cmax in series [2] (setting [11]) was ~8.6 µM. In addition, the CC50 at 24 h in [9] is 16.6 µM; in series [10], > 50 µM. The IC50 was determined as 4.57 µM in the series on SARS-CoV-2 [3] (Calu-3 cells, MOI 0.5, 24 h) and 11 µM in the series on SARS-CoV-2 [4].
As for `CCN1CCN(c2cc(-c3ccc(F)cc3)c3c(n2)CCCCCC3)CC1` [Blonanserin], in series [2] (setting [11]), the Cmax was ~0.003 µM. Further, the CC50 at 24 h in series [9] was 30.3 µM; in series [10], > 50 µM. The “inhibitory activity against M^pro” value at M^pro was “showed inhibitory activities”. Moreover, the concentration for half-maximal inhibition (IC50) in the series on SARS-CoV-2 [3] (Calu-3 cells, MOI 0.5, 24 h) was > 50 µM; in the series with SARS-CoV-2 [4], 12 µM.

The values are drawn from paper PMC8325362, “Drugs repurposed for COVID-19 by virtual screening of 6,218 drugs and cell-based assay” (Proceedings of the National Academy of Sciences of the …, 2021).
